Data published in PMC11707430, “Novel antibiotics against Staphylococcus aureus without detectable resistance by targeting proton motive force and FtsH” (MedComm, 2025).
Where two headings read alike, the source gives them in different places.

Columns and labels:
S. aureus biofilm = assay: Biofilm determination by crystal violet staining; format: cell-based
Description: Biofilm determination by crystal violet staining. The biofilm was formed as described above. The planktonic (non-adherent) bacteria were removed by washing the wells with PBS. Added a solution of 0.15% (wt/vol) crystal violet to each well and incubated for 15 min at room temperature. Then, the plates were gently wash with PBS to remove excess crystal violet. One hundred microliters of ethanol were added to each well to solubilize the crystal violet that has bound to the biofilm. The absorbance at 570nm (A570nm) of the solubilized crystal violet was measured with a microplate reader^6.
Biofilm determination by XTT assay. To determine the biofilm inhibition, overnight cultures of S. aureus were diluted with TSB containing 2-fold diluted antimicrobials at the ratio of 1: 100 and added to a 96-well plate. After incubation statically at 37 ℃ for 24h, the supernatant was carefully removed and washed with PBS. (2,3-Bis-(2-methoxy-4-nitro-5-sulfophenyl)-2H-tetrazolium-5-carboxanilide) (XTT, 0.2 mg/ml) and Phenazin (methylsufate) (PMS, 0.02 mg/ml) were mixed with 1× PBS and added to each well of the 96-well plate (100 μL/well). The plate was then incubated for 3h in the dark, and the absorbance was measured at 490 nm (A490nm). For biofilm eradication, overnight cultures of S. aureus were diluted with fresh TSB at 1:100 and incubated for 24h to pre-form biofilms. […]

[1] = Liver microsomal metabolism analysis; format: in vitro ADME; settings: human; liver microsomes in vitro
Description: Liver microsomal metabolism analysis. Human liver microsome (20 mg protein/mL) was purchased from IPHASE (Beijing, China). One microliter of C218-0546 or STK848198 (200 μM) was incubated with 2 μL of liver microsome in the presence or absence of NADPH. Phenacetin (100 μM) was used as a positive control. After incubation at 37℃ for 0, 15, 30, 45, 60 and 90 min, respectively, the samples were cooled on ice and added with 500 μL of stop solution. The remained compounds were quantified with a LC-MS (Triple Quad™ 5500, AB SCIEX, USA).

[2] = Pharmacokinetics determination; format: in vivo; set-up: bioavailability / Vd / clearance / AUC(0-t) / AUC(0-inf) / MRT last / MRT inf: dose or concentration left out as unconfirmed; settings: female, ICR, mouse, plasma, mice; for MRT last: read-out: MRT(0-t); for MRT inf: read-out: MRT(0-∞)
Description: Pharmacokinetics determination. […] Blood samples were extracted from the jugular vein at intervals of 0.083, 0.25, 0.5, 1, 2, 4, 8, and 24h post-treatment, respectively. The plasma was separated following centrifugation at 6800 × g for 6 min. Concentrations of these compounds in the plasma were quantified by using the LC-MS/MS-04 instrument (TQ4000, JEOL, Japan), and pharmacokinetic parameters were calculated by using Phoenix WinNonlin 7.0 software (Certara, Princeton, NJ, USA)^37.

S. aureus = assay: Peritonitis-sepsis model; format: in vivo, ICR mice; settings: i.p., 24 h postinfection
Description: Peritonitis-sepsis model. Six to seven-week-old female ICR mice were included. […] Mice were injected with 500 μL of the suspension in the presence of 5% mucin by i.p.. An hour post-infection, the mice were administered with: 1) EL+ethanol, 2) […]-0546 (30 mg/kg), and 3) STK848198 (30 mg/kg) alone or in combination with ampicillin (AMP, 25 mg/kg)^38 or amikacin (AMK, 25 mg/kg).

S. aureus ATCC 43300 [3] = assay: Periprosthetic joint infection (PJI) model; format: in vivo, ICR mice; settings: i.p.
S. aureus ATCC 43300 [4] = assay: Consecutive resistance inducing assay; format: cell-based; settings: sub-MIC (1/2×MIC), after 20 days of treatment
Description: Resistance inducing assay. Consecutive and one-step resistance experiments were performed to assess the resistance-inducing ability of the compounds against S. aureus. For consecutive resistance assay, the MICs of compounds and ciprofloxacin (CIP) were determined on the first day. […] […] […] And the antimicrobial activity of the compounds against the CIP-induced strains were assessed by microdilution assay as described above. For one-step resistance assay, overnight cultured S. aureus was adjusted to a final concentration of approximately OD630=0.5 with sterile saline. One hundred microliters of the bacterial suspension were uniformly spread in pre-prepared MH agar plates containing a specific concentration of compounds. Rifampicin (RFP) was used as a positive control. The viable cells were counted on the plates after incubation at 37°C for 48h. The frequency of spontaneous drug resistance mutation was defined as the ratio of the number of resistant CFU counts to the initial CFU counts^3.

Cc1nc2c(-c3ccc(Cl)cc3)cnn2c(O)c1Cc1ccccc1 [STK848198]
concentration inhibiting biofilm biomass formation (S. aureus biofilm; biofilm inhibition): 0.25 µg/mL
concentration eradicating preformed biofilm biomass (S. aureus biofilm; preformed biofilm): 2 µg/mL
half-life [1]: 0.726 h
AUC(0-inf) ([2]; ip): 38300 ± 7020 ng·h/mL
AUC(0-t) ([2]; ip): 38300 ± 7020 ng·h/mL
Cmax ([2]; ip): 39000 ± 5470 ng/mL
bioavailability ([2]; ip): 87%
MRT last ([2]; ip, i.p.): 1.02 ± 0.16 h
MRT inf ([2]; ip, i.p.): 1.17 ± 0.21 h
half-life ([2]; ip, i.p., read-out: T1/2 (converted)): 3.15 ± 2.38 h
Tmax ([2]; ip, i.p., read-out: Tmax): 0.33 ± 0.14 h
AUC(0-inf) ([2]; iv): 22400 ± 1990 ng·h/mL
AUC(0-t) ([2]; iv): 22000 ± 1960 ng·h/mL
C0 ([2]; iv): 51900 ± 1010 ng/mL
Cmax ([2]; iv): 40100 ± 2180 ng/mL
clearance ([2]; iv): 7.48 ± 0.69 mL/min/kg
MRT last ([2]; iv, i.v.): 0.67 ± 0.1 h
MRT inf ([2]; iv, i.v.): 0.86 ± 0.05 h
half-life ([2]; iv, i.v., read-out: T1/2 (converted)): 2.54 ± 0.7 h
Tmax ([2]; iv, i.v., read-out: Tmax): 0.08 h
Vd ([2]; iv, i.v., read-out: Vss): 0.38 ± 0.02 L/kg
Vd ([2]; iv, i.v., read-out: Vz): 1.66 ± 0.57 L/kg
Tmax ([2]; other: range over s.c., i.v., i.p. and p.o., 30 mg/kg, all the administration routes, read-out: T max (range)): 0.08 to 0.33 h
half-life ([2]; other: range over s.c., i.v., i.p. and p.o., 30 mg/kg, all the administration routes, read-out: half-life (range)): 2.54 to 7.65 h
AUC(0-inf) ([2]; po): 17800 ± 10500 ng·h/mL
AUC(0-t) ([2]; po): 17800 ± 10500 ng·h/mL
Cmax ([2]; po): 18700 ± 3430 ng/mL
bioavailability ([2]; po): 40.4%
MRT last ([2]; po, p.o.): 1.62 ± 0.75 h
MRT inf ([2]; po, p.o.): 2.21 ± 0.79 h
half-life ([2]; po, p.o., read-out: T1/2 (converted)): 3.43 ± 1.53 h
Tmax ([2]; po, p.o., read-out: Tmax): 0.25 h
AUC(0-inf) ([2]; sc): 18000 ± 3640 ng·h/mL
AUC(0-t) ([2]; sc): 18000 ± 3640 ng·h/mL
Cmax ([2]; sc): 11600 ± 6890 ng/mL
bioavailability ([2]; sc): 40.9%
MRT last ([2]; sc, s.c.): 3.5 ± 1.22 h
MRT inf ([2]; sc, s.c.): 5.19 ± 2.09 h
half-life ([2]; sc, s.c., read-out: T1/2 (converted)): 7.65 ± 1.16 h
Tmax ([2]; sc, s.c., read-out: Tmax): 0.33 ± 0.14 h
bacterial loads in liver, spleen, lung, and kidney (S. aureus; STK848198 30 mg/kg combined with AMP 25 mg/kg): significantly reduced the bacterial loads
bacterial loads in organs (S. aureus; single use, vs vehicle): no statistical difference
bacterial viable cell loads in infected joint (S. aureus ATCC 43300 [3]; day 5, AMP 25 mg/kg combined with STK848198 30 mg/kg): effectively reduce the bacterial viable cell loads
bacterial loads in the joint and its surrounding tissue (S. aureus ATCC 43300 [3]; day 7, alone or in combination): reduce the bacterial loads
MIC increasement after sub-MIC treatment (S. aureus ATCC 43300 [4]): 0 fold
